Results from patent publication US5681800A, “Biodegradable branched synthetic ester base stocks and lubricants formed therefrom” (priority 1995, dated 1997).

Columns and labels:
[1] = Pour Point (ASTM D-97); assay type: physicochemical
Protocol: (§1) The properties listed in Tables 1 and 2 were determined as follows. Pour Point was determined using ASTM # D-97. Brookfield Viscosity at -25° C. was determined using ASTM # D-2983. Kinematic viscosity (@ 40 and 100° C.) was determined using ASTM # D-445. Viscosity index (VI) was determined using ASTM # D-2270. Biodegradation was determined using the Modified Sturm test (OECD Test No. 301B). Solubility with dispersant was determined by blending the desired ratios and looking for haze, cloudiness, two-phases, etc. Engine wear was determined using the NMMA Yamaha CE50S Lubricity test. Oxidation induction time was determined using a high pressure differential scanning calorimeter (HPDSC) having isothermal/isobaric conditions of 220° C. and 500 psi (3.445 MPa) air, respectively. Aquatic toxicity was determined using the Dispersion Aquatic Toxicity test. The acid number was determined using ASTM # D-664. The hydroxyl number of the respective samples was determined by infrared spectroscopy.

[2] = Brookfield Viscosity at -25° C. (ASTM D-2983); assay type: physicochemical
Protocol: as §1

[3] = Kinematic viscosity (ASTM D-445); assay type: physicochemical
Protocol: as §1

[4] = background; cited from earlier work
[5] = Viscosity index (ASTM D-2270); assay type: physicochemical
Protocol: as §1

[6] = Oxidation induction time by HPDSC; assay type: physicochemical; conditions: 220° C., 500 psi air
Protocol: *Oxidation Induction Time is the amount of time (in minutes) for a
molecule to oxidatively decompose under a particular set of conditions
using a high pressure differential scanning calorimeter (HPDSC).
The conditions used to evaluate these molecules were: 220° C.

[7] = Acid number (ASTM D-664); assay type: physicochemical
Protocol: as §1

Compound	Pour Point [1]	Vis @ -25° C. [2]	Vis. @ 40° C. [3] [cSt]	Vis. @ 100° C. [3] [cSt]	viscosity at 40° C. [4]	Viscosity Index [5]	Oxidation Induction Time [6] [min]	Acid Number [7] [mgKOH/g]	-25° C. Viscosity ([2]; Tables 2 and 4)
CCCCCCCCCCCOC(=O)CCCCC(=O)OCCCCCCCCCCC [Di-undecyladipate]	+21 °C	solid	13.92	2.80	–	–	–	–	–
CCCCCCCCCC(=O)OCC(COC(=O)CCCCCCCCC)(COC(=O)CCCCCCCCC)COC(=O)CCCCCCCCC [ester of pentaerythritol and n-C10 acid]	–	–	–	–	about 38.6 cSt	–	–	–	–
triester of trimethylolpropane and isostearic acid [TMP/iC18]	-20 °C	–	78.34	11.94	–	147	4.29	1.9	358,000 cps
